Results from patent US20190187129A1, “CANCER MODELING PLATFORMS AND METHODS OF USING THE SAME” (Wake Forest University Health Sciences, priority 2016, published 2019).
Entries after “also recorded” stand apart in the source; their conditions may differ.

What was measured:
mesothelioma organoids = test: Biomarker-driven drug study on patient organoids (MTS, Annexin V/Ki67 IHC, H&E); format: cell-based, human; settings: 0.1 μM, 1 μM, 10 μM; 96 hours
Description: (§1) 5 μm thick organoid sections were created from paraffin-embedded constructs, and then deparaffinized for staining. IHC was used to visualize biomarkers cytokeratin 5/6 (CK5/6), calretinin, and thrombomodulin. Blocking was performed by incubation under Dako Protein Block for 15 minutes. Primary antibodies CK5/6 (Abcam, ab17133, raised in mouse) and calretinin (Abcam, ab702, raised in rabbit) or CK5/6 and thrombomodulin (Abcam, ab109189, raised in rabbit) were applied to the sections on the slides at a 1:200 dilution in Dako Antibody Diluent and incubated at room temperature for 1 hour. Next, secondary Alexa Fluor 488 or Alexa Fluor 594 antibodies with appropriate species reactivity were applied to all samples at 1:200 in Dako Antibody Diluent and left at room temperature for 1 hour (anti-mouse Alexa Fluor 488 and anti-rabbit Alexa Fluor 594, Life Technologies, Carlsbad, Calif., A-11070). Sections were then incubated with Dapi for 5 minutes prior to coverslipping. […] Fluorescence images were taken using a Leica DM400B Compound Microscope and overlaid for analysis.
(§2) Tumor constructs were biofabricated once more, after which they were maintained for 3 days prior to drug screening. […] Drug effects were quantified by MTS assays and immunohistochemistry. MTS assays (CellTiter 96 One Solution Reagent Promega, Madison, Wis.) determined relative cell number by quantifying mitochondrial metabolism. Absorbance values were determined on a Molecular Devices SpectrumMax M5 (Molecular Devices) tunable plate reader system at a wavelength of 490 nm.
(§3) Immunohistochemisty staining was performed using biomarkers Annexin V and Ki67 on 5 μm thick organoid sections. […] Fluorescence images were taken using a Leica DM400B Compound Microscope, images were taken of sections next to each other in GFP for Annexin V and Ki67 and overlaid for analysis; Annexin V images were colored red (medium grey in black and white images) and Ki67 images were colored green (light grey in black and white images).

HCT116 organoids = test: Biomarker-driven drug study on control organoids (MTS, Annexin V/Ki67 IHC, H&E); format: cell-based; settings: 0.1 μM, 1 μM, 10 μM; 96 hours
Description: as §1, §2, §3

HCT116 cells = settings: literature reference 31; cited from earlier work

Nc1nccc2c1ncn2[C@@H]1C=C(CO)[C@@H](O)[C@H]1O [DZNep, 3-deazaneplanocin A]
Annexin V and Ki67 immunohistochemistry (mesothelioma organoids): Annexin V appears to increase in mesothelioma with increase in DZNep concentration; also recorded: increasing trend in annexin V expression; also recorded: higher ratios of Annexin V to Ki67
Hematoxylin and eosin staining, cell morphology (mesothelioma organoids): ghost cells and those without nuclei; also recorded: loss of normal morphology and appearance of ghost cells with no nuclei
proliferation / mitochondrial metabolism (MTS assay) (mesothelioma organoids): significant decrease in mesothelioma proliferation; also recorded: decrease in mitochondrial metabolism; also recorded: decreased mitochondrial metabolism
Annexin V and Ki67 immunohistochemistry (HCT116 organoids): minimal change in proliferation
Hematoxylin and eosin staining, cell morphology (HCT116 organoids): not present in any HCT116 treatments; also recorded: do not show this dose dependent change
proliferation / mitochondrial metabolism (MTS assay) (HCT116 organoids): no significant decrease in HCT116 proliferation; also recorded: little effect; also recorded: do not appear to respond negatively
effect on HCT116 cells upon treatment (HCT116 cells): cell cycle arrest, but not necessarily significant levels of cell death
